Results: paper PMC3588010, “Effect of Human Flavin-Containing Monooxygenase 3 Polymorphism on the Metabolism of Aurora Kinase Inhibitors” (International Journal of Molecular Sciences, 2013)
Residue numbers refer to the chain shown, from its start. Names and notes keep the numbering of the source.

Assays:
[1] = biological target: T1, wild type hFMO3 (Homo sapiens, UniProt P31513); assay: N-oxygenation kinetics with purified wild-type hFMO3 (LC-MS); type: in vitro ADME
T1 construct: made in house; host or cells: E. coli JM109 (vector pJL2)
T1 sequence (P31513 1-532): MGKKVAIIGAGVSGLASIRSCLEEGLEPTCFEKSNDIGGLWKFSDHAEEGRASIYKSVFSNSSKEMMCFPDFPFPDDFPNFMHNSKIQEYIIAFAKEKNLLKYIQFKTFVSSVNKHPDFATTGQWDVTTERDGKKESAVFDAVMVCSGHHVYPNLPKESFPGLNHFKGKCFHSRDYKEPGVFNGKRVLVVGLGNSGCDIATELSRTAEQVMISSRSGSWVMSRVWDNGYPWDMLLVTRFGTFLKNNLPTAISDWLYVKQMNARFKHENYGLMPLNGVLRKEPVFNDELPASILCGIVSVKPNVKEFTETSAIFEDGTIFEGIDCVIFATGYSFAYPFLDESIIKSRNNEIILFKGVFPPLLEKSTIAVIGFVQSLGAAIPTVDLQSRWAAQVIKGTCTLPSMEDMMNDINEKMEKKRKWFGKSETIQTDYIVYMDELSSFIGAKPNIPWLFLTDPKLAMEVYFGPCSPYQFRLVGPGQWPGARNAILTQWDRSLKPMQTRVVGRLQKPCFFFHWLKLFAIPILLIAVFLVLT
Method: (§1) Enzymatic reactions were carried out with the purified WT and V257M polymorphic variant in the presence of NADPH and increasing amounts of each substrate as reported in the experimental section. […] The kcat and Km values for V257M were approximately half of that of the wild-type (Figure 3A,B) and the kcat for the wild-type enzyme was at least twice as much of the kcat for V257M.
(§2) The enzyme and NADPH were mixed first and the reaction was initiated by the addition of substrate, preventing thermal degradation of the enzyme. […] The incubations were terminated by the addition of 0.10 mL of ice-cold methanol and 150 μL verapamil as internal standard (IS).
(§3) Prior to LC-MS analysis the reaction mixtures were filtered through a Microcon centrifugal membrane with 3 kDa cutoff (Millipore, Billercia, MA, USA). Substrates and their metabolites were separated using Agilent 1200 HPLC (Agilent Technologies Inc., Santa Clara, CA, USA) equipped with a narrow bore reversed-phase column Zorbax Eclipse XDB-C18, 2.1 × 150 mm, 3.5 μm (Agilent Technologies, Santa Clara, CA, USA) and using a binary solvent system composed of double distilled water with 0.01% formic acid (A), and acetonitrile (ACN) with 0.1% formic acid (B) at flow rate of 0.2 mL min^−1. The initial mobile phase was composed of 20% of solvent B and it was increased to 70% over a period of 3 min and kept 4 min for isocratic separations of substrate, metabolite and internal standard (IS). Finally, the organic solvent was increased to 100% in 30 s for washing the column. Before follower injection, initial mobile phase was re-established for 10 min.
(§4) For quantitative purpose, standards and samples were analysed by LC-ESI-MS/MS in MRM mode using the above-indicated parameters. […] Spectral data were processed using data analysis software of 6300 Series Ion Trap LC/MS 4.0 (Bruker Daltonik GmbH, Bremen, Germany). Metabolite formation was quantified by comparing peak area ratios (metabolite/internal standard) of four data sets of incubations for each Michaelis-Menten curve to ratios obtained from a standard curve containing known amounts of the […].

[2] = biological target: T2, V257M hFMO3 (Homo sapiens, UniProt P31513, V257M); assay: N-oxygenation kinetics with purified V257M polymorphic variant of hFMO3 (LC-MS); type: in vitro ADME
T2 construct: made in house; host or cells: E. coli JM109 (vector pJL2)
T2 sequence (P31513 1-532 V257M): T1 sequence (P31513 1-532) with V257M
Method: as §1, §2, §3, §4

[3] = substrate: CO[C@@H](C(=O)N1Cc2n[nH]c(NC(=O)c3ccc(N4CCN(C)CC4)cc3)c2C1)c1ccccc1; assay: N-oxygenation kinetics with purified wild-type hFMO3 (LC-MS); type: in vitro ADME, human; details: other: WT hFMO3, N-oxide formation, 0.17 μM enzyme, 0.5 mM NADPH, pH 7.4, 37 °C
Method: as §1, §2, §3, §4

[4] = substrate: Cc1cc(Nc2cc(N3CCN(C)CC3)nc(Sc3ccc(NC(=O)C4CC4)cc3)n2)[nH]n1; assay: as above; type: in vitro ADME, human; details: other: WT hFMO3, N-oxide formation, 0.17 μM enzyme, 0.5 mM NADPH, pH 7.4, 37 °C
Method: as §1, §2, §3, §4

[5] = substrate: CO[C@@H](C(=O)N1Cc2n[nH]c(NC(=O)c3ccc(N4CCN(C)CC4)cc3)c2C1)c1ccccc1; assay: N-oxygenation kinetics with purified V257M polymorphic variant of hFMO3 (LC-MS); type: in vitro ADME, human; details: other: V257M hFMO3, N-oxide formation, 0.17 μM enzyme, 0.5 mM NADPH, pH 7.4, 37 °C
Method: as §1, §2, §3, §4

[6] = substrate: Cc1cc(Nc2cc(N3CCN(C)CC3)nc(Sc3ccc(NC(=O)C4CC4)cc3)n2)[nH]n1; assay: as above; type: in vitro ADME, human; details: other: V257M hFMO3, N-oxide formation, 0.17 μM enzyme, 0.5 mM NADPH, pH 7.4, 37 °C
Method: as §1, §2, §3, §4

[7] = WT hFMO3, N-oxide formation, pH 7.4, 37 °C
[8] = V257M hFMO3, N-oxide formation, pH 7.4, 37 °C
[9] = V257M hFMO3, N-oxide formation, values in text

Molecule: CO[C@@H](C(=O)N1Cc2n[nH]c(NC(=O)c3ccc(N4CCN(C)CC4)cc3)c2C1)c1ccccc1 [Danusertib]
- Vmax [1, 7]: 0.57 ± 0.03 nmol/min/mg FMO3
- kcat [1, 7]: 0.165 s⁻¹
- Vmax ([1]; wild-type enzyme, values in text): 0.57 nmol min^−1 mg FMO3
- Vmax [2, 8]: 0.18 ± 0.01 nmol/min/mg FMO3
- kcat [2, 9]: 0.0533 s⁻¹
- Vmax ([2]; V257M, values in text): 0.18 nmol min^−1 mg FMO3

Molecule: Cc1cc(Nc2cc(N3CCN(C)CC3)nc(Sc3ccc(NC(=O)C4CC4)cc3)n2)[nH]n1 [Tozasertib]
- Vmax [1, 7]: 0.54 ± 0.02 nmol/min/mg FMO3
- kcat [1, 7]: 0.155 s⁻¹
- Vmax ([1]; wild type hFMO3, values in text): 536 pmol/min/mg FMO3
- Vmax [2, 8]: 0.25 ± 0.01 nmol/min/mg FMO3
- kcat [2, 9]: 0.0717 s⁻¹
- Vmax ([2]; V257M hFMO3, values in text): 248 pmol/min/mg FMO3

B1: wild type hFMO3 (Homo sapiens) (protein)
chain: T1 sequence (P31513 1-532)
notes: made in house; host or cells: E. coli JM109 (vector pJL2)
- Km [3]: 57.3 ± 8.3 µM
- kcat [3]: 0.165 ± 0.01 s⁻¹
- kcat/Km [3]: 2830 ± 500 M⁻¹ s⁻¹
- Km [4]: 23.8 ± 3.4 µM
- kcat [4]: 0.155 ± 0.005 s⁻¹
- kcat/Km [4]: 6500 ± 1000 M⁻¹ s⁻¹

B2: V257M hFMO3 (Homo sapiens; V257M) (protein)
chain: T1 sequence (P31513 1-532) with V257M
notes: as for B1
- Km [5]: 60.1 ± 11.4 µM
- kcat [5]: 0.0533 s⁻¹
- kcat/Km [5]: 833 ± 167 M⁻¹ s⁻¹
- Km [6]: 12.9 ± 1.3 µM
- kcat [6]: 0.0717 s⁻¹
- kcat/Km [6]: 5500 ± 667 M⁻¹ s⁻¹
